Data as given in patent US5458889A (priority 1986, dated 1995).
Like-named read-outs stand apart in the source and are kept apart here.

Legend:
Type in all cases: cell-based
cells [1] = assay: Study of threshold of cytotoxicity (LDO)
poliomyelitis virus = conditions: LiF, where present, 1 mg/l
cells [2] = assay: Cell toxicity (Test 16); conditions: cytomegalo virus section
Excerpt: The following results were obtained:

spermatozoa [3] = assay: total spermicidal test of IPPF (death of all spermatozoa of 0.2 ml sperm in less than 5 seconds); conditions: for MIC: 5 seconds
Description: The MIC of a chemical compound depends on this compound, but also on the conditions in which it is used, i.e. on the galenical form including the composition.
(§1) The test is carried out on at least 6 sperms from various donors, satisfying the following minimal conditions from IPPF:
age of the sample: two hours;
[…] : 50 million spermatozoa;
mobility: 50% of the spermatozoa should move forward fastly when examined at 35°-37° C. in a recent sample;
viscosity: ejaculum conveniently liquefied, not filaceous and homogeneous-looking with the naked eye;
collected in sterile glass tubes hermetically closed, preserved at 37° C.
The MIC of various known spermicidal compounds were determined with the IPPF test. The following results have been obtained by 1 milliliter of composition reacting with 0.2 milliliter of sperm and by determining the minimal concentration of the spermicidal compounds that induces the death of all the spermatozoa in 5 seconds, and this with 6 sperms from various donors.
The same total spermicidal test of IPPF was carried out with 1 milliliter of composition already containing 0.0001% (in weight) of fluoride anion F^- reacting upon 0.2 milliliter of sperm, by determining the minimal concentration of the spermicidal compounds that induces the death of all the spermatozoa in 5 seconds, and this with 6 sperms from various donors.
This test consists in realizing a test identical to tests N^.
Under the same conditions previously described (Tests N^. 1 to 3), various perfluorinated benzalkonium chlorides were used as basic spermicidal compounds. It was thus shown that perfluorinated benzalkonium chlorides have a spermicide activity similar to the one of the mere benzalkonium chloride. Besides, this activity remains identical to itself under the conditions of test N^.
Test N^. 2 was also realized on perfluorinated benzalkonium chloride mixed with another chemical compound capable of emitting ion F^-.

spermatozoa [4] = assay: IPPF spermicidal test on galenical preparations after in vitro simulation of in vivo conditions; conditions: Test 6, form originally containing 0.45% F^-
Description: as §1
This test in vitro was conducted on galenical preparations including benzalkonium chloride as basic active ingredient, by determining the MIC of this benzalkonium chloride after simulation in vitro of the actual conditions in vivo (extraction, solubilization . . . ).
The percentages correspond to the proportions (in weight) of benzalkonium chloride in the solution used in vitro for the spermicidal test according to IPPF and obtained after simulation, the proportions being measured by titrating using a sample taken off from the solution.
The same conditions as during the comparative test N^. 5 were used, but from galenical forms each originally containing 0.45% (in weight) of fluoride anion F^-.

spermatozoa [5] = assay: as above; conditions: Test 5, without activating ingredient
[6] = final concentration 20 mg/l, contact time 180 min
[7] = final concentration 50 mg/l, contact time 180 min
[8] = final concentration 100 mg/l, contact time 30 min
[9] = final concentration 100 mg/l, contact time 60 min
[10] = final concentration 100 mg/l, contact time 120 min
[11] = final concentration 100 mg/l, contact time 180 min
[12] = Test 1, without F^-, 6 sperms from various donors
[13] = Test 2, composition already containing 0.0001% (in weight) fluoride anion F^-, 6 sperms

Compound	threshold of cytotoxicity (LDO) (cells [1]; after filtration) [%]	threshold of cytotoxicity (LDO) (cells [1]; before filtration) [%]	Viral titre (poliomyelitis virus; [6]) [PFU/ml]	Viral titre (poliomyelitis virus; [7]) [PFU/ml]	Viral titre (poliomyelitis virus; [8]) [PFU/ml]	Viral titre (poliomyelitis virus; [9]) [PFU/ml]	Viral titre (poliomyelitis virus; [10]) [PFU/ml]	Viral titre (poliomyelitis virus; [11]) [PFU/ml]	Cell Toxicity (cells [2]) [%]	MIC (spermatozoa [3]; [12]) [% in weight]	MIC (spermatozoa [3]; [13]) [% in weight]	also measured
Benzalkonium fluoride	0.005	0.01	0	0	0	0	0	0	0.05			Viral titre (poliomyelitis virus; final concentration 50 mg/l, contact time 120 min): 0 PFU/ml
p-menthanylphenylpolyoxyethylene ether										0.006	0.003	
nonoxynol 9										0.006	0.003	
F [fluoride anion F^-]												spermicide activity (spermatozoa [3]; IPPF test, at a titer of 5 ppm (5 milligrams per liter), 0.0833333 min): 100%; spermicidal effect in presence of sodium borate (spermatozoa [3]; Test 3, sodium borate to complex ion F^-): totally disappeared; total spermicide activity according to the IPPF test (spermatozoa [3]; solution containing 0.0001% fluoride anion F^- alone): do not have a total spermicide activity
Benzalkonium chloride	0.01	0.05	0	0	0	0	0	0	0.05	0.006	0.002	total spermicide activity according to the IPPF test (spermatozoa [3]; solution containing 0.003% benzalkonium chloride alone): do not have a total spermicide activity; MIC of benzalkonium chloride (spermatozoa [4]; galenical form: cream): 0.0030 % in weight; MIC of benzalkonium chloride (spermatozoa [4]; galenical form: gel): 0.0033 % in weight; MIC of benzalkonium chloride (spermatozoa [4]; galenical form: ovule): 0.0023 % in weight; MIC of benzalkonium chloride (spermatozoa [4]; galenical form: soluble waffle): 0.0017 % in weight; MIC of benzalkonium chloride (spermatozoa [4]; galenical form: tablet): 0.0025 % in weight; MIC of benzalkonium chloride (spermatozoa [4]; galenical form: tampon): 0.0025 % in weight; MIC of benzalkonium chloride (spermatozoa [5]; galenical form: cream): 0.0083 % in weight; MIC of benzalkonium chloride (spermatozoa [5]; galenical form: gel): 0.0080 % in weight; MIC of benzalkonium chloride (spermatozoa [5]; galenical form: ovule): 0.0063 % in weight; MIC of benzalkonium chloride (spermatozoa [5]; galenical form: soluble waffle): 0.0080 % in weight; MIC of benzalkonium chloride (spermatozoa [5]; galenical form: tablet): 0.0095 % in weight; MIC of benzalkonium chloride (spermatozoa [5]; galenical form: tampon): 0.0075 % in weight; Viral titre (poliomyelitis virus; final concentration 10 mg/l, contact time 180 min): ≈ 0 PFU/ml
